Measured values as given in patent US20240082125A1, “USE OF A SHORT CHAIN FATTY ACID AS ANTIDANDRUFF AGENT” (NANYANG TECHNOLOGICAL UNIVERSITY, priority 2020, published 2024).
“And” between values parts separate entries of the source, which are not always exact repeats. Equal values may be shown once.

Key:
C. acnes ATCC 6919 [1] = assay: Co-culture assay: C. acnes growth with S. epidermidis biofilm in aerobic condition; format: cell-based, Cutibacterium acnes; conditions: monitored 24, 48 and 72 hours, FIG. 8
Procedure: S. epidermidis ATCC 12228, and C. acnes ATCC 6919 were purchased from ATCC. C. acnes and S. epidermidis were cultured in modified brain heart infusion (MBHI) medium (pH 7), containing 37 g of BHI base (Accumedia 7116B), 0.4% (v/v) of Tween-40 (Sigma P1504), 0.2% (v/v) of Oleic acid (Fluka 75096), and 0.2% (v/v) of Glycerol (Promega H5433) in 1 liter of dH2O. S. epidermidis was routinely grown under aerobic conditions, shaken at 200 rpm, and C. acnes was grown under anaerobic conditions. All organisms were grown at 33° C. Wherever required, media was supplemented with: sodium propionate ([…], Sigma Ref. P1880),
C. acnes and S. epidermidis were inoculated in MBHI media at starting cell density of OD600 0.05 and 0.25 respectively. Bacterial growth was measured by plating the serially diluted cultures on Brain Heart Infusion agar plates at different time points and colonies were counted after 72 hours for C. acnes and 24 hours for S. epidermidis.
For co-cultures, equal volumes of exponentially growing cells of the two species were mixed at cell density of 10^5 cells per ml in 24-well glass bottom plates. Growth of each species in co-cultures was quantified by plating the culture suspension on agar medium. […]

[2] = test system: M. restricta ATCC MYA-4611; assay: M. restricta growth assay, total cell numbers by SYTO9 fluorescence; format: cell-based, Malassezia restricta
Procedure: (§1) M. restricta ATCC MYA-4611, S. epidermidis ATCC 12228, and C. acnes ATCC 6919 were purchased from ATCC. M. restricta was routinely cultured in modified Dixon (MD) medium (pH 6), composed of 36 g of Malt extract (Sigma 70167), 20 g of Dessicated Oxbile (Sigma 70168), 6 g of Bacto™ Peptone (BD 211677), 1% (v/v) Tween 40 (Sigma P1504), 0.2% (v/v) Oleic Acid (Fluka 75096), and 0.2% (v/v) Glycerol (Promega H5433) in 1 liter of dH2O. C. acnes and S. epidermidis were cultured in modified brain heart infusion (MBHI) medium (pH 7), containing 37 g of BHI base (Accumedia 7116B), 0.4% (v/v) of Tween-40 (Sigma P1504), 0.2% (v/v) of Oleic acid (Fluka 75096), and 0.2% (v/v) of Glycerol (Promega H5433) in 1 liter of dH2O. M. restricta and S. epidermidis were routinely grown under aerobic conditions, shaken at 200 rpm, and C. acnes was grown under anaerobic conditions. All organisms were grown at 33° C. Wherever required, media was supplemented with: sodium acetate (CH3COOH, Sigma Ref. 32319), sodium propionate ([…], Sigma Ref. P1880), sodium butyrate (CH3(CH2)2COOH, Sigma Ref. 303410), valeric acid (CH3(CH2)3COOH, Fluka Ref. 75054). For valeric acid, the pH in modified cell media was neutralized with NaOH (Sodium hydroxide, Sigma 283060).
M. restricta cells from 1 ml of the culture were harvested by centrifugation at 10,000×g for 5 minutes at room temperature. Cells were washed once, pelleted, and re-suspended in 0.9% NaCl solution. Equal volumes of the above cell suspension and SYTO 9 working stock (3 ul SYTO 9 component of the Live/Dead BacLight bacterial viability kit, ThermoFisher Scientific, L7012, diluted in 1 ml of 0.9% NaCl solution) were mixed well, incubated in dark for 10 minutes, and fluorescent intensity unit was measured in a Tecan microplate reader with excitation/emission wavelengths of 485/530 nm. A standard for correlation of fluorescence units and concentration was prepared using a fluorimeter and hemocytometer under a light microscope. This standard curve was used to calculate the total cell numbers.
(§2) M. restricta cells stored as glycerol stocks (30% glycerol in MD medium) were revived by plating on MD agar plates and incubated for 2-3 days at 33° C. A pre-culture was made from the lawn of cells grown on the agar plate. Cells from % of the plate was scrapped off, homogenized after suspending in 70 ml of MD medium in a 250 ml baffled erlenmeyer flask and incubated for 24 hours at 33° C. at 200 rpm. For experiments, 10^7 cell/ml was inoculated in fresh MD medium with or without the short chain fatty acids. Growth was monitored by measuring the cell density with SYTO 9 for up to 24 hours or 96 hours. C. acnes and S. epidermidis were inoculated into MBHI medium at starting cell density of OD600 0.05 and 0.25, respectively. Bacterial growth was measured by plating the serially diluted cultures on Brain Heart Infusion agar plates at different time points and colonies were counted after 72 hours for C. acnes and 24 hours for S. epidermidis.
M. restricta ATCC MYA-4611, S. epidermidis ATCC 12228 and C. acnes ATCC 6919 were purchased from ATCC. M. restricta were routinely cultured in Modified Dixon (MD) medium (pH 6), composed of 36 g of Malt extract (Sigma 70167), 20 g of Dessicated Oxbile (Sigma 70168), 6 g of Bacto™ Peptone (BD 211677), 1% (v/v) Tween 40 (Sigma P1504), 0.2% (v/v) Oleic Acid (Fluka 75096), and 0.2% (v/v) Glycerol (Promega H5433) in 1 liter of dH2O. C. acnes and S. epidermidis were cultured in modified brain heart infusion (MBHI) medium (pH 7), containing 37 g of BHI base (Accumedia 7116B), 0.4% (v/v) of Tween-40 (Sigma P1504), 0.2% (v/v) of Oleic acid (Fluka 75096), and 0.2% (v/v) of Glycerol (Promega H5433) in 1 liter of dH2O. M. restricta and S. epidermidis were routinely grown under aerobic conditions, shaken at 200 rpm, and C. acnes was grown under anaerobic conditions. All organisms were grown at 33° C.

C. acnes ATCC 6919 [3] = assay: C. acnes growth assay, colony forming units; format: cell-based, Cutibacterium acnes
Procedure: as §1, §2
(§3) Bacterial growth was quantified by plating the serially diluted cultures on Brain Heart Infusion agar plates at different time points and colonies were counted after 72 hours for C. acnes and 24 hours for Staphylococcus sp.
(§4) M. restricta ATCC MYA-4611, S. epidermidis ATCC 12228 and C. acnes ATCC 6919 were purchased from ATCC. M. restricta were routinely cultured in Modified Dixon (MD) medium (pH 6), composed of 36 g of Malt extract (Sigma 70167), 20 g of Dessicated Oxbile (Sigma 70168), 6 g of Bacto™ Peptone (BD 211677), 1% (v/v) Tween 40 (Sigma P1504), 0.2% (v/v) Oleic Acid (Fluka 75096), and 0.2% (v/v) Glycerol (Promega H5433) in 1 liter of dH2O. C. acnes and S. epidermidis were cultured in modified brain heart infusion (MBHI) medium (pH 7), containing 37 g of BHI base (Accumedia 7116B), 0.4% (v/v) of Tween-40 (Sigma P1504), 0.2% (v/v) of Oleic acid (Fluka 75096), and 0.2% (v/v) of Glycerol (Promega H5433) in 1 liter of dH2O. M. restricta and S. epidermidis were routinely grown under aerobic conditions, shaken at 200 rpm, and C. acnes was grown under anaerobic conditions. All organisms were grown at 33° C. Wherever required, media was supplemented with 50 mM of: sodium propionate ([…], Sigma Ref. P1880), sodium butyrate (CH3(CH2)2COOH, Sigma Ref. 303410), valeric acid (CH3(CH2)3COOH, Fluka Ref. 75054). For valeric acid, the pH in modified cell media was neutralized with NaOH (Sodium hydroxide, Sigma 283060).
(§5) M. restricta cells stored as glycerol stocks (30% glycerol in MD medium) were revived by plating on MD agar plates and incubated for 2-3 days at 33° C. A pre-culture was made from the lawn of cells grown on the agar plate.

[4] = test system: S. epidermidis ATCC 12228; assay: S. epidermidis growth assay, colony forming units; format: cell-based, Staphylococcus epidermidis
Procedure: as §1, §2, §3, §4, §5

## CCC(=O)[O-].[Na+] [NaP, sodium propionate]
C. acnes ATCC 6919 [1]
  C. acnes growth in co-culture with S. epidermidis: augmented
[2]; 30 mM, MD medium pH 6, FIG. 1
  growth of Malassezia restricta: completely inhibit
[2]; 50 mM, after 72 hours, SYTO9, starting density 1×10^7 cells/ml, replicates #1-#3
  M. restricta (log10 total cell counts): 6.95 log10 total cell counts and 6.79 log10 total cell counts and 6.82 log10 total cell counts
C. acnes ATCC 6919 [3]; 30 mM, MBHI medium pH 7, anaerobic, FIG. 2
  growth of C. acnes: do not affect
C. acnes ATCC 6919 [3]; 50 mM, after 72 hours, replicates #1-#3
  C. acnes (log10 CFUs/ml): 7.82 log10 CFUs/ml and 8.34 log10 CFUs/ml and 8.29 log10 CFUs/ml
[4]; 30 mM, MBHI medium pH 7, aerobic, FIG. 3
  growth of S. epidermidis: do not affect
[4]; 50 mM, after 24 hours, replicates #1-#3
  S. epidermidis (log10 CFUs/ml): 9.16 log10 CFUs/ml and 8.82 log10 CFUs/ml and 9.00 log10 CFUs/ml
